Key:
[1] = Franz diffusion cell, membrane diffusion across poly(dimethylsiloxane) membrane
[2] = Franz diffusion cell, membrane diffusion across hairless mouse skin; assay type: in vitro ADME
Method: Diffusion of the compounds through hairless mouse skin into phosphate buffer in a Franz cell was carried out and measured as described in Example 1, with Sudan I being used in place of Fat Brown RR.

[3] = saturated solution in alpha-terpineol, 0 hours
[4] = saturated solution in alpha-terpineol, 24 hours
[5] = saturated solution in isostearic acid, 0 hours
[6] = saturated solution in isostearic acid, 24 hours
[7] = saturated solution in propylene glycol, 0 hours
[8] = saturated solution in propylene glycol, 24 hours
[9] = saturated solution in tetraglycol, 0 hours
[10] = saturated solution in tetraglycol, 24 hours

CCN(CCO)c1ccc(N=Nc2ccc([N+](=O)[O-])cc2)cc1 [Disperse Red 1]
relative order for membrane diffusion rate ([1]; ranking of excipients): alpha-terpineol>isostearic acid>tetraglycol
CUMULATIVE AMOUNT OF COMPOUND DIFFUSED ACROSS SKIN [1, 3]: 0 μg/10 mL
CUMULATIVE AMOUNT OF COMPOUND DIFFUSED ACROSS SKIN [1, 4]: 11 μg/10 mL
CUMULATIVE AMOUNT OF COMPOUND DIFFUSED ACROSS SKIN ([1]; saturated solution in alpha-terpineol, 48 hours): 25 μg/10 mL
CUMULATIVE AMOUNT OF COMPOUND DIFFUSED ACROSS SKIN ([1]; saturated solution in alpha-terpineol, 72 hours): 45 μg/10 mL
CUMULATIVE AMOUNT OF COMPOUND DIFFUSED ACROSS SKIN [1, 5]: 0 μg/10 mL
CUMULATIVE AMOUNT OF COMPOUND DIFFUSED ACROSS SKIN [1, 6]: 3 μg/10 mL
CUMULATIVE AMOUNT OF COMPOUND DIFFUSED ACROSS SKIN ([1]; saturated solution in isostearic acid, 48 hours): 6 μg/10 mL
CUMULATIVE AMOUNT OF COMPOUND DIFFUSED ACROSS SKIN ([1]; saturated solution in isostearic acid, 72 hours): 12 μg/10 mL
CUMULATIVE AMOUNT OF COMPOUND DIFFUSED ACROSS SKIN [1, 7]: 0 μg/10 mL
CUMULATIVE AMOUNT OF COMPOUND DIFFUSED ACROSS SKIN [1, 8]: 1 μg/10 mL
CUMULATIVE AMOUNT OF COMPOUND DIFFUSED ACROSS SKIN ([1]; saturated solution in propylene glycol, 48 hours): 4 μg/10 mL
CUMULATIVE AMOUNT OF COMPOUND DIFFUSED ACROSS SKIN ([1]; saturated solution in propylene glycol, 72 hours): 10 μg/10 mL
CUMULATIVE AMOUNT OF COMPOUND DIFFUSED ACROSS SKIN [1, 9]: 0 μg/10 mL
CUMULATIVE AMOUNT OF COMPOUND DIFFUSED ACROSS SKIN [1, 10]: 1 μg/10 mL
CUMULATIVE AMOUNT OF COMPOUND DIFFUSED ACROSS SKIN ([1]; saturated solution in tetraglycol, 48 hours): 3 μg/10 mL
CUMULATIVE AMOUNT OF COMPOUND DIFFUSED ACROSS SKIN ([1]; saturated solution in tetraglycol, 72 hours): 6 μg/10 mL

Nc1ccc(N=Nc2cccc3ccccc23)c(N)c1 [Fat Brown RR]
relative order for membrane diffusion rate ([2]; ranking of excipients): alpha-terpineol>propylene glycol>isostearic acid>tetraglycol
CUMULATIVE AMOUNT OF COMPOUND DIFFUSED ACROSS SKIN [2, 3]: 0 µg/mL
CUMULATIVE AMOUNT OF COMPOUND DIFFUSED ACROSS SKIN ([2]; saturated solution in alpha-terpineol, 6 hours): 168 µg/mL
CUMULATIVE AMOUNT OF COMPOUND DIFFUSED ACROSS SKIN ([2]; saturated solution in alpha-terpineol, 12 hours): 444 µg/mL
CUMULATIVE AMOUNT OF COMPOUND DIFFUSED ACROSS SKIN ([2]; saturated solution in alpha-terpineol, 18 hours): 812 µg/mL
CUMULATIVE AMOUNT OF COMPOUND DIFFUSED ACROSS SKIN [2, 4]: 1162 µg/mL
CUMULATIVE AMOUNT OF COMPOUND DIFFUSED ACROSS SKIN [2, 5]: 0 µg/mL
CUMULATIVE AMOUNT OF COMPOUND DIFFUSED ACROSS SKIN ([2]; saturated solution in isostearic acid, 6 hours): 41 µg/mL
CUMULATIVE AMOUNT OF COMPOUND DIFFUSED ACROSS SKIN ([2]; saturated solution in isostearic acid, 12 hours): 92 µg/mL
CUMULATIVE AMOUNT OF COMPOUND DIFFUSED ACROSS SKIN ([2]; saturated solution in isostearic acid, 18 hours): 169 µg/mL
CUMULATIVE AMOUNT OF COMPOUND DIFFUSED ACROSS SKIN [2, 6]: 262 µg/mL
CUMULATIVE AMOUNT OF COMPOUND DIFFUSED ACROSS SKIN [2, 7]: 0 µg/mL
CUMULATIVE AMOUNT OF COMPOUND DIFFUSED ACROSS SKIN ([2]; saturated solution in propylene glycol, 6 hours): 84 µg/mL
CUMULATIVE AMOUNT OF COMPOUND DIFFUSED ACROSS SKIN ([2]; saturated solution in propylene glycol, 12 hours): 221 µg/mL
CUMULATIVE AMOUNT OF COMPOUND DIFFUSED ACROSS SKIN ([2]; saturated solution in propylene glycol, 18 hours): 445 µg/mL
CUMULATIVE AMOUNT OF COMPOUND DIFFUSED ACROSS SKIN [2, 8]: 677 µg/mL
CUMULATIVE AMOUNT OF COMPOUND DIFFUSED ACROSS SKIN [2, 9]: 0 µg/mL
CUMULATIVE AMOUNT OF COMPOUND DIFFUSED ACROSS SKIN ([2]; saturated solution in tetraglycol, 6 hours): 13 µg/mL
CUMULATIVE AMOUNT OF COMPOUND DIFFUSED ACROSS SKIN ([2]; saturated solution in tetraglycol, 12 hours): 25 µg/mL
CUMULATIVE AMOUNT OF COMPOUND DIFFUSED ACROSS SKIN ([2]; saturated solution in tetraglycol, 18 hours): 39 µg/mL
CUMULATIVE AMOUNT OF COMPOUND DIFFUSED ACROSS SKIN [2, 10]: 52 µg/mL
